Assay results from US9210927B2, “Pesticidal compositions and processes related thereto” (Dow AgroSciences LLC, priority 2013, dated 2015).
Read-outs that look alike come from different tables or passages of the source.

Columns and labels:
[1] = test system: CEW (Helicoverpa zea); assay: Bioassays on Corn Earworm (CEW), 128-well diet tray assay; type: in vivo; settings: for pest or weed control at 50 µg/cm2: Helicoverpa zea, 168 h, read-out: CEW Rating
Method: (§1) Bioassays on Beet Armyworm (“BAW”) and Corn Earworm (“CEW”) and Cabbage Looper (“CL”)
(§2) Certain molecules disclosed in this document were tested against BAW and CEW and CL using procedures described in the following examples. In the reporting of the results, the “BAW & CEW & CL Rating Table” was used (See Table Section).
Bioassays on CEW (Helicoverpa zea)
Bioassays on CEW were conducted using a 128-well diet tray assay. one to five second instar CEW larvae were placed in each well (3 mL) of the diet tray that had been previously filled with 1 mL of artificial diet to which 50 μg/cm^2 of the test compound (dissolved in 50 μL of 90:10 acetone-water mixture) had been applied (to each of eight wells) and then allowed to dry. Trays were covered with a clear self-adhesive cover, and held at 25° C., 14:10 light-dark for five to seven days. Percent mortality was recorded for the larvae in each well; activity in the eight wells was then averaged. The results are indicated in the table entitled “Table 3: Assay Results” (See Table Section).

[2] = test system: BAW (Spodoptera exigua); assay: Bioassays on Beet Armyworm (BAW), 128-well diet tray assay; type: in vivo; settings: for pest or weed control at 50 µg/cm2: Spodoptera exigua, 168 h, read-out: BAW Rating
Method: as §1, §2
Bioassays on BAW (Spodoptera exigua)
Bioassays on BAW were conducted using a 128-well diet tray assay. one to five second instar BAW larvae were placed in each well (3 mL) of the diet tray that had been previously filled with 1 mL of artificial diet to which 50 μg/cm^2 of the test compound (dissolved in 50 μL of 90:10 acetone-water mixture) had been applied (to each of eight wells) and then allowed to dry. Trays were covered with a clear self-adhesive cover, and held at 25° C., 14:10 light-dark for five to seven days. Percent mortality was recorded for the larvae in each well; activity in the eight wells was then averaged. The results are indicated in the table entitled “Table 3: Assay Results” (See Table Section).

[3] = percent mortality, second instar larvae, 50 μg/cm^2 on artificial diet, five to seven days, 25° C.

Row | Compound | pest or weed control at 50 µg/cm2 [1, 3] | pest or weed control at 50 µg/cm2 [2] | also measured
1 | O=C(NNc1ccc(/C=C/C(c2cc(Cl)c(Cl)c(Cl)c2)C(F)(F)F)cc1)C1CC1 (centres unmarked) [CC50, (E)-N′-(4-(4,4,4-Trifluoro-3-(3,4,5-trichlorophenyl)but-1-en-1-yl)phenyl)cyclopropanecarbohydrazide] | 50 to 100% | 50 to 100% | 
2 | O=C(Cn1ncc2cc(/C=C/C(c3cc(Cl)c(F)c(Cl)c3)C(F)(F)F)ccc2c1=O)NCC(F)(F)F (centres unmarked) [BC14, (E)-2-(6-(3-(3,5-Dichloro-4-fluorophenyl)-4,4,4-trifluorobut-1-en-1-yl)-1-oxophthalazin-2(1H)-yl)-N-(2,2,2-trifluoroethyl)acetamide] |  | 50 to 100% | 
3 | O=C(NC1CCCc2cc(/C=C/C(c3cc(Cl)c(Cl)c(Cl)c3)C(F)(F)F)ccc21)C1CC1 (centres unmarked) [BC7] | 50 to 100% | 50 to 100% | 
4 | N#Cc1cc(/C=C/C(c2cc(Cl)c(Cl)c(Cl)c2)C(F)(F)F)ccc1-n1cnc(N(C(=O)C2CC2)C(=O)C2CC2)n1 (centres unmarked) [DC42, (E)-N-(1-(2-Cyano-4-(4,4,4-trifluoro-3-(3,4,5-trichlorophenyl)but-1-en-1-yl)phenyl)-1H-1,2,4-triazol-3-yl)-N-(cyclopropanecarbonyl)cyclopropanecarboxamide] | 50 to 100% | 50 to 100% | 
5 | Cc1cc(/C=C/C(c2cc(Cl)cc(Cl)c2)C(F)(F)F)ccc1C(=O)NC(C)(C)c1ccccn1 (centres unmarked) [AC16] | 50 to 100% | 50 to 100% | 
6 | O=C(NCC(=S)NCC(F)(F)F)c1ccc(/C=C/C(c2cc(Cl)c(Cl)c(Cl)c2)C(F)(F)F)cc1Br (centres unmarked) [AC92, (E)-2-Bromo-N-(2-thioxo-2-((2,2,2-trifluoroethyl)amino)ethyl)-4-(4,4,4-trifluoro-3-(3,4,5-trichlorophenyl)but-1-en-1-yl)benzamide] | 50 to 100% | 50 to 100% | 
7 | Cc1cc(/C=C/C(c2cc(Cl)cc(Cl)c2)C(F)(F)F)cc(C#N)c1-n1cncn1 (centres unmarked) [DC44] | 50 to 100% | 50 to 100% | 
8 | O=C(NCc1ccc(/C=C/C(c2cc(Cl)cc(Cl)c2)C(F)(F)F)cc1C(F)(F)F)C1CC1 (centres unmarked) [CC21] | 50 to 100% | 50 to 100% | 
9 | CC(=O)N1CCC(NC(=O)c2ccc(/C=C/C(c3cc(Cl)c(Cl)c(Cl)c3)C(F)(F)F)cc2Br)CC1 (centres unmarked) [AC103, (E)-N-(1-Acetylpiperidin-4-yl)-2-bromo-4-(4,4,4-trifluoro-3-(3,4,5-trichlorophenyl)but-1-en-1-yl)benzamide] | 50 to 100% | 50 to 100% | 
10 | Cc1cc(/C=C/C(c2cc(Cl)cc(Cl)c2)C(F)(F)F)ccc1C(=O)NCC(=O)NCC(F)(F)F (centres unmarked) [AC24] |  |  | CEW Rating [1, 3]: A (50-100); BAW Rating [2, 3]: A (50-100)
11 | O=C(NC1CS(=O)(=O)C1)c1ccc(/C=C/C(c2cc(Cl)c(F)c(Cl)c2)C(F)(F)F)cc1F (centres unmarked) [AC84] | 50 to 100% | 50 to 100% | 
12 | COc1c(Cl)cc(C(/C=C/c2ccc(-n3cncn3)cc2)C(F)(F)F)cc1Cl (centres unmarked) [DC20] |  | 50 to 100% | 
13 | FC(F)(F)C(/C=C/c1ccc(-n2cncn2)cc1)c1ccc(Cl)cc1 (centres unmarked) [DC4] |  | 50 to 100% | 
14 | OCc1cc(/C=C/C(c2cc(Cl)cc(Cl)c2)C(F)(F)F)ccc1-n1cncn1 (centres unmarked) [DC53] | 50 to 100% |  | 
15 | FC(F)(F)C(/C=C/c1ccc(CNC(=S)C2CC2)c(Cl)c1)c1cc(Cl)c(Cl)c(Cl)c1 (centres unmarked) [CC20] | 50 to 100% | 50 to 100% | 
16 | Cc1ncnn1-c1ccc(/C=C/C(c2cc(Cl)cc(Cl)c2)C(F)(F)F)cc1 (centres unmarked) [DC23] | 50 to 100% |  | 
17 | CS(=O)(=O)CCC(=O)NCc1ccc(/C=C/C(c2cc(Cl)c(Cl)c(Cl)c2)C(F)(F)F)cc1Cl (centres unmarked) [CC30, (E)-N-(2-Chloro-4-(4,4,4-trifluoro-3-(3,4,5-trichlorophenyl)but-1-en-1-yl)benzyl)-3-(methylsulfonyl)propanamide] | 50 to 100% | 50 to 100% | 
18 | O=C(CNC(=O)c1ccc(/C=C/C(c2cc(Cl)cc(Cl)c2)C(F)(F)F)cc1F)NCC(F)(F)F (centres unmarked) [AC62] | 50 to 100% | 50 to 100% | 

Row | Compound | pest or weed control at 50 µg/cm2 [1, 3] | pest or weed control at 50 µg/cm2 [2] | also measured
19 | CNc1cc(/C=C/C(c2cc(Cl)cc(Cl)c2)C(F)(F)F)ccc1-n1cncn1 (centres unmarked) [DC57, (E)-5-(3-(3,5-Dichlorophenyl)-4,4,4-trifluorobut-1-en-1-yl)-N-methyl-2-(1H-1,2,4-triazol-1-yl)aniline] | 50 to 100% | 50 to 100% | 
20 | Cc1cc(/C=C/C(c2cc(Cl)cc(Cl)c2)C(F)(F)F)ccc1C(=O)NCC(=O)NC1CS(=O)(=O)C1 (centres unmarked) [AC81] |  | 50 to 100% | 
21 | FC(F)(F)C(/C=C/c1ccc(-n2cncn2)cc1)c1ccccc1 (centres unmarked) [DC3] |  | 0 to 50% | 
22 | Cc1cc(/C=C\C(c2cc(Cl)cc(Cl)c2)C(F)(F)F)ccc1C(=O)NCC(=O)NC1CC1 (centres unmarked) [AC93] |  | 50 to 100% | 
23 | CCNC(=O)NCc1ccc(/C=C/C(c2cc(Cl)cc(Cl)c2)C(F)(F)F)cc1Cl (centres unmarked) [CC31, (E)-1-(2-Chloro-4-(3-(3,5-dichlorophenyl)-4,4,4-trifluorobut-1-en-1-yl)benzyl)-3-ethylurea] |  | 0 to 50% | 
24 | O=C(NC1CCN(C2COC2)CC1)c1ccc(/C=C/C(c2cc(Cl)c(Cl)c(Cl)c2)C(F)(F)F)cc1Br (centres unmarked) [AC108, (E)-2-Bromo-N-(1-(oxetan-3-yl)piperidin-4-yl)-4-(4,4,4-trifluoro-3-(3,4,5-trichlorophenyl)but-1-en-1-yl)benzamide] |  | 0 to 50% | 
25 | O=C(CC(F)(F)F)NCc1ccc(/C=C/C(c2cc(Cl)c(Cl)c(Cl)c2)C(F)(F)F)c2ccccc12 (centres unmarked) [CC46, (E)-3,3,3-Trifluoro-N-((4-(4,4,4-trifluoro-3-(3,4,5-trichlorophenyl)but-1-en-1-yl)naphthalen-1-yl)methyl)propanamide] | 50 to 100% |  | 
26 | Cc1cc(-n2cncn2)ccc1/C=C/C(c1cc(Cl)cc(Cl)c1)C(F)(F)F (centres unmarked) [DC65] | 50 to 100% |  | 
27 | O=C(NCc1ccc(/C=C/C(c2cc(Cl)c(Cl)c(Cl)c2)C(F)(F)F)cc1Cl)Oc1ccccc1Cl (centres unmarked) [CC40] |  |  | pest or weed control at 50 µg/cm2 [1]: 50 to 100%
28 | O=C(Cc1ccc(Cl)nc1)NCc1ccc(/C=C/C(c2cc(Cl)c(Cl)c(Cl)c2)C(F)(F)F)cc1Cl (centres unmarked) [CC14] |  | 50 to 100% | 
29 | O=C(NOc1ccc(/C=C/C(c2cc(Cl)c(Cl)c(Cl)c2)C(F)(F)F)cc1)C1CC1 (centres unmarked) [CC52, (E)-N-(4-(4,4,4-Trifluoro-3-(3,4,5-trichlorophenyl)but-1-en-1-yl)phenoxy)cyclopropanecarboxamide] |  | 50 to 100% | 
30 | Fc1cc(F)cc(C(/C=C/c2ccc(-n3cncn3)cc2)C(F)(F)F)c1 (centres unmarked) [DC8] |  | 50 to 100% | 
31 | Fc1ccc(C(/C=C/c2ccc(-n3cncn3)cc2)C(F)(F)F)cc1 (centres unmarked) [DC7] |  | 50 to 100% | 
32 | Cc1cc(/C=C/C(c2cc(Cl)cc(Cl)c2)C(F)(F)F)ccc1C(=O)NCc1nc2ccccc2s1 (centres unmarked) [AC42] |  | 50 to 100% | 
33 | Cc1cc(/C=C/C(c2cc(Cl)cc(Cl)c2)C(F)(F)F)ccc1C(=O)NCC1CCCO1 (centres unmarked) [AC118] |  | 50 to 100% | 
34 | Cc1cc(/C=C/C(c2cc(Cl)cc(Cl)c2)C(F)(F)F)ccc1C(=O)NCC(=O)NC1CSC1 (centres unmarked) [AC41] |  | 50 to 100% | 
35 | Cc1cc(C)cc(C(/C=C/c2ccc(-n3cncn3)cc2)C(F)(F)F)c1 (centres unmarked) [DC11] |  | 50 to 100% | 
36 | O=C(CNC(=O)c1ccc(/C=C/C(c2cc(F)c(Cl)c(F)c2)C(F)(F)F)cc1Br)NCC(F)(F)F (centres unmarked) [AC102] | 50 to 100% |  | 
